This is an account of results in patent US20120083464A1, “NEUROPROTECTIVE PROPERTIES OF 5'-METHYLTHIOADENOSINE” (priority 2009, published 2012).

SMILES strings stand for the structures. Entries after “also recorded” stand apart in the source; their conditions may differ.

One series deals with RN22 cells. The series can be described thus: Copper sulphate stress in RN22 cells, MTT cell viability. The format is cell-based, rat. On the procedure:
RN22 cells were maintained at 37° C. in DMEM medium supplemented with 10% of fetal bovine serum and penicillin/streptomycine. The assays against stress with copper sulphate were conducted using 24-well plates in DMEM medium without serum. After allowing cell adherence for three days, NGF (100 ng/ml) or MTA was added to different concentrations half an hour before the copper sulphate (150 μM). After twenty-four hours, cell viability was quantified by MTT assay and ROS production was quantified by fluorescence. Assays against stress with hydrogen peroxide were conducted in the same way as the foregoing, using 100 μM hydrogen peroxide as a stress-producing agent.
We determined the quantity of MTT (Sigma) that is reduced to insoluble formazan. After separating the medium, the water-insoluble formazan is solubilised in DMSO and the dissolved material is measured in a spectrophotometer at 570 nm.

Series [1] deals with oligodendrocytes derived from the optic nerve. The series can be described thus: Oligodendrocyte excitotoxicity with AMPA. The format is cell-based, Sprague Dawley rats. The note with it: MTA 100-300 μM. On the procedure: (§1) Primary cultures of oligodendrocytes derived from optic nerves of 12-d-old Sprague Dawley rats were obtained as described previously (Barres et al., 1992). Cells were seeded into 24-well plates bearing 12-mm-diameter coverslips coated with poly-D-lysine (10 μg/ml) at a density of 5×10^3 cells per well. Cells were maintained at 37° C. and 5% CO2 in a chemically defined medium (Barres et al., 1992, Cell 70:31-46). After 2-4 d in vitro, cultures were composed of at least 98% O4/galactocerebroside-positive (O4/Ga1C_) cells; the majority of the remaining cells were stained with antibodies to glial fibrillary acidic protein (GFAP). No A2B5+ or microglial cells were detected in these cultures (Alberdi et al., 2002, Neurobiol Dis 9:234-243).
(§2) Cell toxicity and viability assays were performed as described previously (Sánchez-Gómez and Matute, 1999, Neurobiol Dis 6:475-485). For evaluating the MTA toxicity, cells at 2-4 d in culture were exposed for 24 hours to that drug and cell viability assessed using calcein-AM (Invitrogen). […] Twenty-four hours after drug application, cell viability was assessed using calcein-AM (Invitrogen). The total number of surviving cells on each coverslip emitting calcein fluorescence was counted, and results were expressed as percentage of cell death versus control. Results were expressed as the mean±SEM of at least three independent experiments performed in duplicate. […]

For series [2], the system named is pure rat cortical neuronal culture. The series can be described thus: NMDA-mediated toxicity (LDH release) in pure neuronal culture. The format is cell-based, Sprague-Dawley rat. The note with it: NMDA 300 μM, MTA 100 to 500 μM. On the procedure:
Primary cultures of brain cortical neurons were essentially prepared as described previously (Bruno et al., 2001, Eur. J. Neurosci., 13:1469-1478). The fronto-lateral cortical lobes were dissected out of Sprague-Dawley embryonic day 17 foetuses and were mechanically dissociated in Hanks' balanced solution. The cortical lobes were triturated by aspirating 7-10 times using a Pasteur pipette with a flame-narrowed tip. After centrifugation at 800 g for 5 min, cells were resuspended in serum-free Neurobasal medium (GIBCO) supplemented with B27 (GIBCO) containing 2 mM L-glutamine, penicillin (20 units/ml) and streptomycin (5 μg/ml) and plated on poly-L-lysine-coated 24-well culture plates or on poly-L-lysine-coated 6-well culture plates. […]
For viability experiments, cortical neurons or mixed cortical neurons and glia, seeded onto 24-well plates at 15×10^4 cells/well and cultured for 7 DIV, were treated with vehicle (DMSO 1‰), NMDA (300 μM), NMDA (300 μM)+MTA (at different concentrations) or NMDA (300 μM)+MK-801 (10 μM) for 6 h and 24 h. […] Lactate dehydrogenase (LDH) activity was measured as an index of cellular death and mortality was expressed as percentage of LDH released to culture media. LDH was measured spectrophotometrically at 490 nm on a 96-well plate reader by using the Cytotox 96 Kit according to the manufacturer instructions (Promega). […]
(LDH leaks from cells whose membrane has failed.)

The test system of the next series is caspase 3 activity. The series can be described thus: NMDA-mediated increase in caspase 3 activity in pure neuronal culture. The format is cell-based, Sprague-Dawley rat. The note with it: NMDA 300 μM, MTA 100 to 500 μM. On the procedure: Primary cultures of brain cortical neurons were essentially prepared as described previously (Bruno et al., 2001, Eur. J. Neurosci., 13:1469-1478). The fronto-lateral cortical lobes were dissected out of Sprague-Dawley embryonic day 17 foetuses and were mechanically dissociated in Hanks' balanced solution. The cortical lobes were triturated by aspirating 7-10 times using a Pasteur pipette with a flame-narrowed tip. […]
Cortical neurons or mixed cortical neurons and glia were plated on poly-L-lysine-coated 6-well culture plates and after 7 DIV, cells were treated with vehicle or NMDA (300 μM) for different periods of time. […] Extracts were then centrifuged at 5,000×g for 10 min at 4° C., and protein content was determined by using the BCA protein assay according to the manufacturer instructions. Cell extracts (40 μg of protein) were incubated in reaction buffer (25 mM Hepes, 10% sucrose, 0.1% CHAPS, 10 mM DTT) containing 50 μM fluorescence substrate Z-DEVD-AFC at 37° C. for 1 h. Cleavage of the AFC fluorophore was determined in a spectrofluorometer at excitation wavelength of 400 nm and fluorescence was detected at an emission wavelength of 505 nm. Caspase 3 activity was expressed as units of fluorescence/mg of protein/h (Posadas et al., 2009, Pharm. Res., In press).

The test system of series [3] is rats after focal ischemia (MCAO). The class given is in vivo.
Series [4] concerns oligodendrocytes derived from the optic nerve. The series can be described thus: MTA toxicity profile in cultured oligodendrocytes (calcein-AM). The class given is cell-based. As to conditions: MTA 1 μM-3 mM for 24 hours. On the procedure: as §1, §2

Turning to `CSC[C@H]1O[C@@H](n2cnc3c(N)ncnc32)[C@H](O)[C@@H]1O` [MTA, 5′-methylthioadenosine], the “cell viability response (MTT) under copper sulphate stress at high MTA concentrations” value in the series on RN22 cells (MTA in mM range) was “lowest response”. Besides, the “cell viability (MTT) under copper sulphate stress” value with RN22 cells (copper sulphate 150 μM, twenty-four hours, reaches NGF control levels at most MTA concentrations) is listed as “significant neuroprotective effect”. Further, the results for the “protection of oligodendrocytes from excitotoxic insult” value in series [1] (AMPA 10 μM) and in series [1] (AMPA 100 μM (necrotic death)) were “robust protective activity; also recorded: protects” and “no protection; also recorded: does not protect”, respectively. In addition, in series [2], the “effect on NMDA-mediated toxicity (LDH release)” value was “no neuroprotective effect; also recorded: Lack of effect”. The “effect on NMDA-mediated increase in caspase 3 activity” value in the series with caspase 3 activity is listed as “Lack of effect”. Also, in series [3] (MTA 30 mg/kg i.p. twice daily from 30 min after onset of ischemia, 3 days of reperfusion), the “damaged area (TTC staining) versus vehicle” value is reported as “did not show a reduction; also recorded: does not protect”. Further, the “toxicity to rats after ischemia” value in series [3] (MTA 100 mg/kg i.p. twice daily) is reported as “toxic”. In series [4], the “MTA concentrations at which significant toxicity was observed (calcein-AM)” value was “above 300 μM”.
